Laboratory results reported in patent publication US20240398831A1, “COMPOSITIONS COMPRISING SMALL MOLECULE REGULATORS OF TUMOR IMMUNITY AND METHODS OF USING SAME” (Duke University, priority 2021, published 2024).

Columns and labels:
CD4+ and CD8+ T cells = assay: T cell proliferation assay and staining, direct treatment of T cells in vitro; format: cell-based, mouse; details: E2 (1 nM)+fulvestrant (100 nM), 3 days
From the text: FIG. 17C and FIG. 17H show the percentage of CD44^+CD69^+ activated CD8^+ T cells (FIG. 17C) and CD4^+ T cells (FIG. 17H) from experiments described above. FIG. 17D and FIG. 17I show the percentage of GZMB^+ activated CD8^+ T cells (FIG. 17D) and CD4^+ T cells (FIG. 17I) from experiments described above. FIG. 17E and FIG. 17J show the percentage of IFNγ^+ activated CD8^+ T cells (FIG. 17E) and CD4^+ T cells (FIG. 17J) from experiments described above. Data are expressed as individual data points and represented as mean±S.E.M. Significance was calculated by one way ANOVA.
T cell proliferation assay and staining. CD3+ T cells were isolated from the spleens of C57BL/6J or P-mel mice with magnetic bead-based T cell isolation kit (Cat #19851, StemCell Technologies). T cells from naïve mice were stained with 5 μM CFSE (Cat #C34554, ThermoFisher Scientific) for 5 minutes in PBS+5% CFS with rapid vortexing following which the cells were washed twice with PBS. Stained T cells were then counted and plated in 96-well plates coated with anti-CD3 antibody (0.5 μg/mL, Cat #19851, ThermoFisher Scientific) anti-CD28 antibody (1 μg/mL, Cat #16-0281-86, Thermo Fisher Scientific) at desired density (250,000 T cells/50,000 CD11b or BMDM) in the presence of IL2 (50 ng/mL) (Cat #212-12, PeproTech). […]

B16F10 cells = assay: Proliferation assay; format: cell-based, mouse; details: E2 0.01-1 nM, 3 days
Description: (§1) ERα+ MCF7 cells served as a positive control. Cells were treated as either mock transfected or transfected with scrambled control or three different siRNA targeting Esr1. […] Esr1 was first normalized to Rplp0 and then Esr1 knockdown samples were normalized to a non-targeting control. RNA was collected from both cell lines after 48 hr of siRNA transfection. […] Mouse ovary served as a positive control. […] ERα+MCF7 cells served as a positive control (FIG. 5E, left). […] Data are expressed as individual data points and represented as mean±S.E.M. Significance was calculated by Student's t test or two-way ANOVA (FIGS. 5E-5F), followed by Bonferroni's multiple correction (**p<0.0001).
Proliferation assay. For proliferation assays, B16F10 cells were plated in DMEM media (without phenol red) supplemented with 10% charcoal-stripped FBS. Cells were plated at a concentration of 1000 cells/well of a 96-well plate for 2 days in 200 μL of media. […] Cells were collected every 24 hr by discarding the media from the plates. Plates were frozen at −80° C. […] Cell numbers were determined by the addition of 100 μL of (conc.) DNA dye […] dye (Sigma Cat #94403) in TNE buffer (10 mM Tris, 2M NaCl and 1 mM EDTA) and the fluorescence was read at an excitation of 360 nm and an emission at 465 nm using a microplate reader.

[1] = Uterine wet weights in ovariectomized mice; format: in vivo, mouse; details: E2 pellets 0.01 mg/60 days vs placebo
Description: as §1
Ovarlectomy and subcutaneous pellet Insertion. Ovariectomy was performed as previously described (Nelson et al., Science 2013, 342, 1094-1098). Eight days prior to tumor inoculation, 7 weeks old C57BL/6J or 5 weeks old (iBP) female mice were subjected to ovariectomy or sham surgery. Mice were anesthetized in an inhalation chamber (2% Isoflurane) and maintained in half the dose of isoflurane (1%) via nose cone throughout the surgical process. Prior to surgery, mice were administered a 5 mg/kg dose of carprofen subcutaneously. […] The mouse was then removed from anesthesia and kept in a clean cage and monitored until conscious. The mice were monitored for recovery for 10 days.

[2] = tested on: WNT5A and TCF4 target genes; assay: Quantitative PCR of tumor infiltrating myeloid cells from iBP tumors; format: in vivo, mouse
Description: All target genes were normalized to Rplp0 and then siEsr1 (FIG. 14E) or DMSO (FIG. 14F) samples were normalized to siRNA control. Data are represented as mean±S.E.M. Significance was calculated by Student's t test (FIGS. 14C-14D) (*p<0.05, **p<0.01, and ***p<0.001).
Quantitative PCR of tumor Infiltrating myeloid cells. Tumor infiltrating myeloid cells were isolated from iBP tumors using a CD11b isolation kit (catalog #18970, StemCell Technologies). RNA was isolated using RNA Aqueous Micro kit (catalog #1931, Ambion) followed by cDNA synthesis using an iScript cDNA synthesis kit (Cat #170-7691). Quantitative amplification was performed using Sybr Green (Cat #1725124, Bio-Rad) and a CFX-384 Real Time PCR detection system. Primers used are listed below in TABLE 1.

Compound	proliferation or cytotoxic capabilities of CD4+ or CD8+ T cells (CD4+ and CD8+ T cells)	proliferation (B16F10 cells)	uterine wet weights [1]	genes in the WNT5A and TCF4 pathways ([2]; E2 compared to placebo)	expression of Vegfa, Tgm2 and Tspo and Stat1 ([2]; myeloid cells from E2 treated tumors)
C[C@]12CC[C@@H]3c4ccc(O)cc4C[C@@H](CCCCCCCCC[S+]([O-])CCCC(F)(F)C(F)(F)F)[C@H]3[C@@H]1CC[C@@H]2O (some centres unmarked) [fulvestrant]	did not affect	–	–	–	–
17β-estradiol [E2]	–	nor did it support proliferation	increase	differentially regulated	increased expression
